According to patent publication US8669249B2, “Poly (ADP-ribose) polymerase (PARP) inhibitors” (Takeda Pharmaceutical Company Limited, priority 2009, dated 2014):

What was measured:
PARP = target: T1, PARP (Homo sapiens, UniProt P09874); assay: PARP ELISA (ELISA-based colorimetric PARP/Apoptosis Assay kit, Trevigen); type: biochemical; conditions: pIC50=-log10 IC50, IC50 in mol/L; inhibition of PARP catalytic activity
T1 construct: purchased Trevigen 4684-096-K HT (kit); 4684-096-01 (PARP enzyme)
T1 sequence (P09874 whole entry): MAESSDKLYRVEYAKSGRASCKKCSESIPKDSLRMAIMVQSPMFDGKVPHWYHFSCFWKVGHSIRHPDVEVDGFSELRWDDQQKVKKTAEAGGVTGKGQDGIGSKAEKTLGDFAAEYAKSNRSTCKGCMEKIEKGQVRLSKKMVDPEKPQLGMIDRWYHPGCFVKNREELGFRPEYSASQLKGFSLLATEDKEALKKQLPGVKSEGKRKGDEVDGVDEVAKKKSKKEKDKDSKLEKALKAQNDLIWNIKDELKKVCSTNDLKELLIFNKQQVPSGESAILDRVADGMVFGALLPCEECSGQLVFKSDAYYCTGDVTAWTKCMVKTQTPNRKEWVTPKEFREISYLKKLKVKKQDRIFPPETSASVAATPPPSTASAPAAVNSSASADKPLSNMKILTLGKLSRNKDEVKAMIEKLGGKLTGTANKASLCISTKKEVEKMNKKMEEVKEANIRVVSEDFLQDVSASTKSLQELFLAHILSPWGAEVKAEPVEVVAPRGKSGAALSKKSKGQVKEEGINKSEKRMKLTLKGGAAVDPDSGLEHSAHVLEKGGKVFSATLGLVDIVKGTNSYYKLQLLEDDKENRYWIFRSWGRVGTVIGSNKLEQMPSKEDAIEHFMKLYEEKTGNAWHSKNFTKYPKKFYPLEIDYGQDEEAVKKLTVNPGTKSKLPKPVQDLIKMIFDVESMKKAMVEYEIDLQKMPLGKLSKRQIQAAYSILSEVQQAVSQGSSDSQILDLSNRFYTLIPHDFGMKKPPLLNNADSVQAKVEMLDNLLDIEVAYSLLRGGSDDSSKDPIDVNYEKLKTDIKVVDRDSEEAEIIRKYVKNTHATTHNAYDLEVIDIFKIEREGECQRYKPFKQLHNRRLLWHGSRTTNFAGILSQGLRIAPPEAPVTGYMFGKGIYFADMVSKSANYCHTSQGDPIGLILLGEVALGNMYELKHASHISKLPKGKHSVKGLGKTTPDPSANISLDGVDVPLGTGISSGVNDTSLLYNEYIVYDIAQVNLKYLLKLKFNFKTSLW
Summary of the method: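 Quenched after 10 min catalysis by aspiration and four PBS/0.1% Triton X-100 washes. Poly(ADP-ribose) detected with mouse anti-PAR monoclonal antibody, goat anti-mouse IgG-HRP and HRP substrate; colorimetric signal proportional to PARP catalytic activity.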

Jurkat cell line = assay: PARP cellular chemopotentiation assay (MTS, with/without TMZ); type: cell-based; conditions: Chemopotentiation factor: ratio of EC50 values of Jurkat cells co-treated without and with 100 μM TMZ; 96 hours
Summary of the method: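 Jurkat cells, 10,000/well, pre-cultured 24 h, then treated 96 h with serial compound dilutions (0.5% DMSO) with or without 100 μM TMZ. Viability by MTS conversion (OD490), normalized to DMSO controls; EC50 from curve fits, PF50 = EC50 without TMZ / EC50 with TMZ.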

IC50 (PARP) [nM] | Structure (SMILES) | PF50 (Jurkat cell line)
79.4 | CCNC(=O)c1ccc(N2CCN(Cc3cc4c(c(OC)c3)OCC(=O)N4)CC2)c(Cl)c1 [Compound 370, 3-Chloro-N-ethyl-4-(4-((8-methoxy-3-oxo-3,4-dihydro-2H-benzo[b][1,4]oxazin-6-yl)methyl)piperazin-1-yl)benzamide] | 5.0
15.8 | CCNC(=O)c1ccc(N2CCN(Cc3ccc4c(c3)NC(=O)C(C)O4)CC2)c(Cl)c1 (stereo not drawn) [Compound 371, 3-Chloro-N-ethyl-4-(4-((2-methyl-3-oxo-3,4-dihydro-2H-benzo[b][1,4]oxazin-6-yl)methyl)piperazin-1-yl)benzamide] | >20
20 | COc1cc(CN2CCN(c3ccc(C(=O)NC4CC4)cc3F)CC2)cc2c1OC(C)C(=O)N2 (stereo not drawn) [Compound 372, N-Cyclopropyl-3-fluoro-4-{4-[(8-methoxy-2-methyl-3-oxo-3,4-dihydro-2H-1,4-benzoxazin-6-yl)methyl]piperazin-1-yl}benzamide] | 1.0
20 | COc1cc(CN2CCN(c3ccc(C(=O)NC4CC4)cc3Cl)CC2)cc2c1OC(C)C(=O)N2 (stereo not drawn) [Compound 373, 3-Chloro-N-cyclopropyl-4-(4-((8-methoxy-2-methyl-3-oxo-3,4-dihydro-2H-benzo[b][1,4]oxazin-6-yl)methyl)piperazin-1-yl)benzamide] | 3.2
31.6 | CCNC(=O)c1ccc(N2CCN(Cc3cc4c(c(OC)c3)OCC(=O)N4)CC2)c(C)c1 [Compound 374, N-Ethyl-4-(4-((8-methoxy-3-oxo-3,4-dihydro-2H-benzo[b][1,4]oxazin-6-yl)methyl)piperazin-1-yl)-3-methylbenzamide] | <2.0
15.8 | COc1cc(CN2CCN(c3ccc(C(=O)NC4CC4)cc3C)CC2)cc2c1OCC(=O)N2 [Compound 375, N-cyclopropyl-4-(4-((8-methoxy-3-oxo-3,4-dihydro-2H-benzo[b][1,4]oxazin-6-yl)methyl)piperazin-1-yl)-3-methylbenzamide] | >2.0
15.8 | CNC(=O)c1ccc(N2CCN(Cc3cc4c(c(OC)c3)OCC(=O)N4)CC2)c(C)c1 [Compound 376, 4-(4-((8-Methoxy-3-oxo-3,4-dihydro-2H-benzo[b][1,4]oxazin-6-yl)methyl)piperazin-1-yl)-N,3-dimethylbenzamide] | >6.0
> 200 | CC1Oc2ccc(CN3CCN(c4ccc(C(=O)N5CCCC5)cc4)CC3)cc2NC1=O (stereo not drawn) [Compound 377, 2-Methyl-6-((4-(4-(pyrrolidine-1-carbonyl)phenyl)piperazin-1-yl)methyl)-2H-benzo[b][1,4]oxazin-3(4H)-one] | 1.0
50.1 | CNC(=O)c1ccc(N2CCN(Cc3cc(C)c4c(c3)NC(=O)C(C)O4)CC2)c(F)c1 (stereo not drawn) [Compound 380, 4-(4-((2,8-Dimethyl-3-oxo-3,4-dihydro-2H-benzo[b][1,4]oxazin-6-yl)methyl)piperazin-1-yl)-3-fluoro-N-methylbenzamide] | 4.0
39.8 | CCNC(=O)c1ccc(N2CCN(Cc3cc(C)c4c(c3)NC(=O)C(C)O4)CC2)c(F)c1 (stereo not drawn) [Compound 381, 4-(4-((2,8-Dimethyl-3-oxo-3,4-dihydro-2H-benzo[b][1,4]oxazin-6-yl)methyl)piperazin-1-yl)-N-ethyl-3-fluorobenzamide] | >2
79.4 | CCNC(=O)c1ccc(N2CCN(Cc3cc(C)c4c(c3)NC(=O)C(C)O4)CC2)c(Cl)c1 (stereo not drawn) [Compound 382, 3-Chloro-4-(4-((2,8-dimethyl-3-oxo-3,4-dihydro-2H-benzo[b][1,4]oxazin-6-yl)methyl)piperazin-1-yl)-N-ethylbenzamide] | 3.4
50.1 | CNC(=O)c1ccc(N2CCN(Cc3cc(C)c4c(c3)NC(=O)C(C)O4)CC2)c(Cl)c1 (stereo not drawn) [Compound 383, 3-Chloro-4-(4-((2,8-dimethyl-3-oxo-3,4-dihydro-2H-benzo[b][1,4]oxazin-6-yl)methyl)piperazin-1-yl)-N-methylbenzamide] | 3.2
39.8 | CNC(=O)c1ccc(N2CCN(Cc3cc(C)c4c(c3)NC(=O)C(C)O4)CC2)c(C)c1 (stereo not drawn) [Compound 384, 4-(4-((2,8-Dimethyl-3-oxo-3,4-dihydro-2H-benzo[b][1,4]oxazin-6-yl)methyl)piperazin-1-yl)-N,3-dimethylbenzamide] | 8.4
50.1 | CCNC(=O)c1ccc(N2CCN(Cc3cc(C)c4c(c3)NC(=O)C(C)O4)CC2)c(C)c1 (stereo not drawn) [Compound 385, 4-(4-((2,8-Dimethyl-3-oxo-3,4-dihydro-2H-benzo[b][1,4]oxazin-6-yl)methyl)piperazin-1-yl)-N-ethyl-3-methylbenzamide] | 5.9
50.1 | Cc1cc(C(=O)NC2CC2)ccc1N1CCN(Cc2cc(C)c3c(c2)NC(=O)C(C)O3)CC1 (stereo not drawn) [Compound 386, N-Cyclopropyl-4-(4-((2,8-dimethyl-3-oxo-3,4-dihydro-2H-benzo[b][1,4]oxazin-6-yl)methyl)piperazin-1-yl)-3-methylbenzamide] | >5.0
50.1 | Cc1cc(CN2CCN(c3ccc(C(=O)NC4CC4)cc3F)CC2)cc2c1OC(C)C(=O)N2 (stereo not drawn) [Compound 387, N-Cyclopropyl-4-(4-((2,8-dimethyl-3-oxo-3,4-dihydro-2H-benzo[b][1,4]oxazin-6-yl)methyl)piperazin-1-yl)-3-fluorobenzamide] | >5.0
79.4 | Cc1cc(CN2CCN(c3ccc(C(=O)NC4CC4)cc3Cl)CC2)cc2c1OC(C)C(=O)N2 (stereo not drawn) [Compound 388, 3-Chloro-N-cyclopropyl-4-(4-((2,8-dimethyl-3-oxo-3,4-dihydro-2H-benzo[b][1,4]oxazin-6-yl)methyl)piperazin-1-yl)benzamide] | 6558
> 200 | CC1Oc2ccc(CC3CCN(c4ccccc4)CC3)cc2NC1=O (stereo not drawn) [Compound 389, 2-Methyl-6-((1-phenylpiperidin-4-yl)methyl)-2H-benzo[b][1,4]oxazin-3(4H)-one] | 1.1
> 200 | CNC(=O)c1ccc(N2CCC(Cc3ccc4c(c3)NC(=O)C(C)O4)CC2)cc1 (stereo not drawn) [Compound 390, N-Methyl-4-(4-((2-methyl-3-oxo-3,4-dihydro-2H-benzo[b][1,4]oxazin-6-yl)methyl)piperidin-1-yl)benzamide] | 1.0
79.4 | CCOc1cc(CN2CCN(c3ccc(C(=O)NC)cc3)CC2)cc2c1OC(C)C(=O)N2 (stereo not drawn) [Compound 398, 4-(4-((8-Ethoxy-2-methyl-3-oxo-3,4-dihydro-2H-benzo[b][1,4]oxazin-6-yl)methyl)piperazin-1-yl)-N-methylbenzamide] | >2.0
63.1 | CCNC(=O)c1ccc(N2CCN(Cc3cc4c(c(OCC)c3)OC(C)C(=O)N4)CC2)c(Cl)c1 (stereo not drawn) [Compound 399, 3-Chloro-4-(4-((8-ethoxy-2-methyl-3-oxo-3,4-dihydro-2H-benzo[b][1,4]oxazin-6-yl)methyl)piperazin-1-yl)-N-ethylbenzamide] | >4.0
31.6 | CCOc1cc(CN2CCN(c3ccc(C(=O)NC)cc3C)CC2)cc2c1OC(C)C(=O)N2 (stereo not drawn) [Compound 400, 4-(4-((8-Ethoxy-2-methyl-3-oxo-3,4-dihydro-2H-benzo[b][1,4]oxazin-6-yl)methyl)piperazin-1-yl)-N,3-dimethylbenzamide] | 1211
50.1 | CCNC(=O)c1ccc(N2CCN(Cc3cc4c(c(OCC)c3)OC(C)C(=O)N4)CC2)c(C)c1 (stereo not drawn) [Compound 401, 4-(4-((8-Ethoxy-2-methyl-3-oxo-3,4-dihydro-2H-benzo[b][1,4]oxazin-6-yl)methyl)piperazin-1-yl)-N-ethyl-3-methylbenzamide] | >5000
39.8 | CCOc1cc(CN2CCN(c3ccc(C(=O)NC4CC4)cc3C)CC2)cc2c1OC(C)C(=O)N2 (stereo not drawn) [Compound 402, N-Cyclopropyl-4-(4-((8-ethoxy-2-methyl-3-oxo-3,4-dihydro-2H-benzo[b][1,4]oxazin-6-yl)methyl)piperazin-1-yl)-3-methylbenzamide] | >10000
63.1 | CNC(=O)c1ccc(N2CCN(Cc3cc4c(c(OC(F)F)c3)OC(C)C(=O)N4)CC2)cc1 (stereo not drawn) [Compound 403, 4-(4-((8-(Difluoromethoxy)-2-methyl-3-oxo-3,4-dihydro-2H-benzo[b][1,4]oxazin-6-yl)methyl)piperazin-1-yl)-N-methylbenzamide] | >2.0
31.6 | CCNC(=O)c1ccc(N2CCN(Cc3cc4c(c(OC(F)F)c3)OC(C)C(=O)N4)CC2)cc1 (stereo not drawn) [Compound 404, 4-(4-((8-(Difluoromethoxy)-2-methyl-3-oxo-3,4-dihydro-2H-benzo[b][1,4]oxazin-6-yl)methyl)piperazin-1-yl)-N-ethylbenzamide] | >2.0
63.1 | CNC(=O)c1ccc(N2CCN(Cc3cc4c(c(OC(F)F)c3)OC(C)C(=O)N4)CC2)c(C)c1 (stereo not drawn) [Compound 406, 4-(4-((8-(Difluoromethoxy)-2-methyl-3-oxo-3,4-dihydro-2H-benzo[b][1,4]oxazin-6-yl)methyl)piperazin-1-yl)-N,3-dimethylbenzamide] | 13
